Values of other authors as cited in US6777002B1, “Process for microencapsulation of water soluble substances” (Debio Recherche Pharmaceutique S.A., priority 1999, dated 2004).

Details: in water at 20-25° C.

| SMILES | solubility in water |
| --- | --- |
| CCOC(C)=O [ethyl acetate] | 8.70 % (by weight) |
| ClCCl [dichloromethane] | 1.32 % (by weight) |
